One data set has as its system VCAM-1. In words: In Vitro VCAM-1 Assay (TNF-α stimulated HAEC or HPAEC, cell ELISA). As to conditions: TNF-α (1 ng/ml) stimulated HAEC or HPAEC, approximately 16 hours. It is filed as cell-based, human. The protocol: Cell Culture and compound dosing: Cultured primary human aortic (HAEC) or pulmonary (HPAEC) endothelial cells were obtained from Clonetics, Inc., and were used below passage 9. Cells were seeded in 96 well plates such that they would reach 90–95% confluency by the following day. On the following day the cells were stimulated with TNF-α (1 ng/ml) in the presence or absence of compounds dissolved in DMSO such that the final concentration of DMSO is 0.25% or less. To establish a dose curve for each compound, four concentrations in 2- to 5-fold increments were used. Cells were exposed to TNF-α and compounds for approximately 16 hours. The next day the cells were examined under microscope to score for visual signs of toxicity or cell stress.
Following 16 hr exposure to TNF-α and compound the media was discarded and the cells were washed once with Hanks Balanced Salt Solution (HBSS)/Phosphate buffered saline (PBS) (1:1). Primary antibodies against VCAM-1 (0.25 μg/ml in HBSS/PBS+5% FBS) were added and incubated for 30–60 minutes at 37° C. Cells were washed with HBSS/PBS three times, and secondary antibody Horse Radish Peroxidase (HRP)-conjugated goat anti-mouse IgG (1:500 in HBSS/PBS+5% FBS) were added and incubated for 30 minutes at 37° C. Cells were washed with HBSS/PBS four time and TMB substrate were added and incubated at room temperature in the dark until there was adequate development of blue color. The length of time of incubation was typically 5–15 minutes. 2N sulfuric acid was added to stop the color development and the data was collected by reading the absorbance on a BioRad ELISA plate reader at OD 450 nm. The results are expressed as IC50 values (the concentration (micromolar) of compound required to inhibit 50% of the maximal response of the control sample stimulated by TNF-α only).
Background: In an ELISA, binding on a coated surface is turned into a signal by an enzyme label.

The source of these data is patent publication US7094801B2, “Chalcone derivatives and their use to treat diseases” (Atherogenics, Inc., priority 2001, dated 2006).

Where a name gives a salt, the structure may show the parent alone.

As to `COc1cc(/C=C/C(=O)c2ccc3c(c2)OC(CO)(CO)O3)cc(-c2cccs2)c1OC` [Example 1, 1-(2,2-Bis-hydroxymethyl-benzo[1,3]dioxol-5-yl)-3E-(3,4-dimethoxy-5-thiophen-2-yl-phenyl)-propenone], the melting point was 74 to 80 °C. The compound also returned an IC50 in the data set with VCAM-1 (Homo sapiens, 16 h) below 1 µM.

Take `O=C(/C=C/c1ccc(-c2cccs2)cc1)c1ccc2c(c1)OC(CO)(CO)O2` [Example 2, 1-(2,2-Bis-hydroxymethyl-benzo[1,3]dioxol-5-yl)-3E-(4-thiophen-2-yl-phenyl)-propenone]: the melting point lay in the range of 166 to 168 °C. This compound also yielded an IC50 with VCAM-1 (Homo sapiens, 16 h) below 5 µM.

With `O=C(O)c1ccc(C(=O)/C=C/c2ccc(-c3cncnc3)cc2)cc1` [Example 4, 4-[3E-(4-Pyrimidin-5-yl-phenyl)-acryloyl]-benzoic acid], the melting point was above 260 °C. Further, in the data set with VCAM-1 (Homo sapiens, 16 h), the IC50 was below 10 µM.

Compound `O=C(O)c1ccc(C(=O)/C=C/c2ccc(-c3nccs3)cc2)cc1` [Example 5, 4-[3E-(4-Thiazol-2-yl-phenyl)acryloyl]-benzoic acid] returned a melting point of 232 to 235 °C. Moreover, in the data set with VCAM-1 (Homo sapiens, 16 h), the IC50 was below 1 µM.

On to `COc1cc(OC)c(-c2cc3ccccc3s2)cc1/C=C/C(=O)c1ccccc1C(=O)O` [Example 7, 2-[3E-(5-Benzo[b]thiophen-2-yl-2,4-dimethoxy-phenyl)-acryloyl]-benzoic acid], for which the melting point was 220 to 223 °C (dec.). In addition, in the data set with VCAM-1, the concentration for half-maximal inhibition (IC50) is below 1 µM.

The compound `COc1cc(/C=C/C(=O)c2ccc(C(=O)O)cc2)cc(-c2cccs2)c1OC` [Example 8, 4-[3E-(3,4-Dimethoxy-5-thiophen-2-yl-phenyl)-acryloyl]-benzoic acid] displayed a melting point of 231 °C. Further, the IC50 in the data set with VCAM-1 (Homo sapiens, 16 h) was below 1 µM.

For `COc1cc(OC)c(-c2cc3ccccc3s2)cc1/C=C/C(=O)c1ccccc1C(=O)[O-].[Na+]` [Example 9, 2-[3E-(5-Benzo[b]thiophen-2-yl-2,4-dimethoxy-phenyl)-acryloyl]-benzoic acid, sodium salt], the melting point was 214 to 217 °C (dec.). Besides, the IC50 in the data set on VCAM-1 (sodium salt) is below 5 µM.

The compound `O=C(O)c1ccc(C(=O)/C=C/c2ccc(-c3cccs3)cc2)cc1` [Example 10, 4-[3E-(4-Thiophen-2-yl-phenyl)-acryloyl]-benzoic acid] came in with a melting point above 260 °C. The same compound came in with an IC50 in the data set on VCAM-1 (Homo sapiens, 16 h) below 5 µM.

As for `COc1cc(/C=C/C(=O)c2ccc(N)cc2)cc(-c2cccs2)c1OC` [Example 11, 1-(4-Amino-phenyl)-3E-(3,4-dimethoxy-5-thiophen-2-yl-phenyl)-propenone], the melting point was 67 to 71 °C. The compound also showed an IC50 with VCAM-1 (Homo sapiens, 16 h) below 5 µM.

`Nc1ccc(C(=O)/C=C/c2ccc(-c3cccs3)cc2)cc1` [Example 12, 1-(4-Amino-phenyl)-3E-(4-thiophen-2-yl-phenyl)-propenone] had a melting point of 185 to 187 °C. This compound gave a concentration for half-maximal inhibition (IC50) with VCAM-1 (Homo sapiens, 16 h) below 5 µM.

The compound `COc1cc(OC)c(-c2cc3ccccc3s2)cc1/C=C/C(=O)c1ccc(NC2OC(CO)C(O)C(O)C2O)cc1` [Example 99, 3E-(5-Benzo[b]thiophen-2-yl-2,4-dimethoxy-phenyl)-1-[4-(D-glucopyranosylamino)-phenyl]-propenone] displayed a half-inhibitory concentration (IC50) with VCAM-1 (Homo sapiens, 16 h) above 10 µM.

As for `CCOC(=O)C1(C(=O)OCC)Oc2ccc(C(=O)/C=C/c3cc(OC)c(OC)c(-c4cccs4)c3)cc2O1` [Example 103, 5-[3E-(3,4-Dimethoxy-5-thiophen-2-yl-phenyl)-acryloyl]-benzo[1,3]dioxole-2,2-dicarboxylic acid, diethyl ester], the IC50 with VCAM-1 (Homo sapiens, 16 h) is above 10 µM.

In the data set on VCAM-1 (Homo sapiens, 16 h), `COc1cc(OC)c(-c2cc3ccccc3s2)cc1/C=C/C(=O)c1ccc(C(=O)O)cc1` [Example 120, 4-[3E-(5-Benzo[b]thien-2-yl-2,4-dimethoxyphenyl)-acryloyl]-benzoic acid, N-methyl-D-glucamine salt] yielded a 50% inhibitory concentration (IC50) below 1 µM.

For orientation: IC50 means the concentration needed to halve the response being measured. What is called melting point is the temperature of the solid-liquid transition.
